Assay: Plasma exposure and brain penetration after single oral dose
Assay type: in vivo, mice
Conditions: male; for AUC(0-inf) / AUC(0-t): CD-1, mouse; for AUC(0-t): tlast 8 h; for Cmax: mouse, CD-1 mice
Procedure: Plasma and brain exposures of SAR218645 in male CD-1 mice (25–30 g at arrival) were measured after single oral doses of 1, 3 and 10 mg/kg. Mouse plasma samples (25.0 μl) were transferred into micro-centrifuge tubes (1.7 ml) and mixed with 50 μl of Internal Standard solution (500 ng/ml in acetonitrile). The tubes were vortex mixed for 1 min and centrifuged at 10,000 g for 5 min. An aliquot of the supernatant (50 μl) was transferred into an autosampler vial and mixed with 100 μl of water for LC/MS/MS analysis. Each mouse brain was first homogenized with 3.0 ml of 25% acetonitrile in water. The tissue homogenates (50.0 μl) were transferred into micro-centrifuge tubes (1.7 ml) and mixed with 100 μl of Internal Standard solution (500 ng/ml of A000597492 in acetonitrile). The tubes were vortex mixed for 1 min and centrifuged at 10,000 g for 5 min. An aliquot of the supernatant (50 μl) was transferred into an autosampler vial and mixed with 100 μl of water for LC/MS/MS analysis. The lower limits of quantitation (LLOQ) for SAR218645 were 0.500 ng/ml for plasma and 0.100 ng/ml for brain homogenate. The calibration curves were linear in the above prepared concentration ranges. The LLOQ for brain tissue was estimated to be approximately 0.80 ng/g. The pharmacokinetic parameters were calculated from the arithmetic mean of the group sample concentrations using the program WinNonLin 5.2., non-compartment model 200 for the extravascular routes.

CC1(C)CCc2cc(OC[C@@H]3Cn4ccc(=O)nc4O3)ccc21 [SAR218645, (S)-2-(1,1-dimethyl-indan-5-yloxymethyl)-2,3-dihydro-oxazolo[3,2-a]pyrimidin-7-one]
AUC(0-inf) (plasma, 1 mg/kg oral): 230 ng·h/mL | AUC(0-t) (plasma, 1 mg/kg oral): 230 ng·h/mL | AUC(0-inf) (plasma, 3 mg/kg oral): 540 ng·h/mL | AUC(0-t) (plasma, 3 mg/kg oral): 540 ng·h/mL | AUC(0-inf) (plasma, 10 mg/kg oral): 2400 ng·h/mL | AUC(0-t) (plasma, 10 mg/kg oral): 2300 ng·h/mL | Cmax (brain, 1 mg/kg oral): 32 ng/g | Cmax (brain, 3 mg/kg oral): 103 ng/g | Cmax (brain, 10 mg/kg oral): 339 ng/g | Cmax (plasma, 1 mg/kg oral): 131 ng/mL | Cmax (plasma, 3 mg/kg oral): 434 ng/mL | Cmax (plasma, 10 mg/kg oral): 1080 ng/mL

— article PMC5062470, “The mGluR2 positive allosteric modulator, SAR218645, improves memory and attention deficits in translational models of cognitive symptoms associated with schizophrenia” (Scientific Reports, 2016)
